# Test results as given in PubChem BioAssay (NCI).
#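 The compound was tested at five concentrations on cells cultured in 96-well plates, with a 48-hour exposure period. Here, GI50 denotes the concentration required for 50% inhibition of growth. The concentration for full growth arrest is given as TGI.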
# Legend:
# Assay in all cases: NCI tumour cell line growth inhibition, 48 h
# HOP-92 NSCLC = tested on: HOP-92 NSCLC
# OVCAR-8 ovarian = tested on: OVCAR-8 ovarian
# RXF 393 renal = tested on: RXF 393 renal
# UACC-62 melanoma = tested on: UACC-62 melanoma
# M14 melanoma = tested on: M14 melanoma
# SR leukemia = tested on: SR leukemia
# COLO 205 colon = tested on: COLO 205 colon
# LOX IMVI melanoma = tested on: LOX IMVI melanoma
# CCRF-CEM leukemia = tested on: CCRF-CEM leukemia
# KM12 colon = tested on: KM12 colon
Structure (SMILES),GI50 (HOP-92 NSCLC) [µM],TGI (HOP-92 NSCLC) [µM],GI50 (OVCAR-8 ovarian) [µM],TGI (OVCAR-8 ovarian) [µM],GI50 (RXF 393 renal) [µM],TGI (RXF 393 renal) [µM],GI50 (UACC-62 melanoma) [µM],TGI (UACC-62 melanoma) [µM],GI50 (M14 melanoma) [µM],TGI (M14 melanoma) [µM],GI50 (SR leukemia) [µM],TGI (SR leukemia) [µM],GI50 (COLO 205 colon) [µM],TGI (COLO 205 colon) [µM],GI50 (LOX IMVI melanoma) [µM],TGI (LOX IMVI melanoma) [µM],GI50 (CCRF-CEM leukemia) [µM],TGI (CCRF-CEM leukemia) [µM],GI50 (KM12 colon) [µM],TGI (KM12 colon) [µM]
CC(C)N1CCN(Cc2ccc3c(NNC(=O)c4ccccc4)nc4cc(F)ccc4n23)CC1,0.678,15.3,0.381,27.4,0.792,8.87,0.388,2.67,0.23,3.28,0.185,6.83,0.273,3.47,0.198,1.54,0.146,4.09,0.397,11
CCN(Cc1ccc(F)cc1)c1ccc(CO)c(C)c1,8.45,27,11.9,38.4,8.47,23.3,1.19,6.87,14.3,37.6,20.3,58.1,5.7,19,14.9,29,19.7,59.2,19.6,45.1
C[N+](C)(C)CC1CCC/C1=N/O (stereo not given),–,> 100,–,4.34,–,> 100,–,> 100,–,> 100,–,54.2,–,38.7,–,38.4,–,39.1,–,> 100
Cc1cccc(C(C)C)c1N1C(=O)C(=O)C(c2nc3ccccc3o2)C(=O)C1=O,–,> 100,–,> 100,–,> 100,–,> 100,–,> 100,–,> 100,–,> 100,–,> 100,–,63,–,> 100
Cc1ccc(/C=C2\CN(C(=O)C(Cl)Cl)C/C(=C\c3ccc(C)cc3)C2=O)cc1,1.47,3.95,0.357,> 100,0.216,0.507,0.237,0.632,0.261,0.784,0.11,> 100,0.241,0.695,0.0621,0.199,0.11,> 100,0.193,0.48
Clc1ccc(-c2nnc(-c3cccc4ccccc34)o2)cc1Cl,–,> 100,–,> 100,–,> 100,–,> 100,–,> 100,–,> 100,–,> 100,–,> 100,–,> 100,–,> 100
